Reference: the supplement of paper PMC11451515

Columns and labels:
Settings in all cases: 48 h
NOMO1 [1] = assay: cell viability relative to DMSO control; higher = less cytotoxic
Procedure, shortened: (§1)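 NOMO1 or SEM cells were plated at 500 cells/well and P12-Ichikawa cells at 1000 cells/well in 1536-well plates (5 μl), after each leukemia line had been adapted for at least four passages in each medium. Pin dosing delivered library compounds in DMSO at 11 threefold concentrations, 47 μM to 0.79 nM. CellTiter-Glo One luminescence was read after 48 h at 37°C. Viability is reported as a per-plate percentage of DMSO wells, with cell-free wells as background.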

P12-Ichikawa [2] = assay: as above
Procedure, shortened: as §1

SEM cells [3] = assay: as above
Procedure, shortened: as §1

NOMO1 [4] = assay: AUC of viability dose-response curve (% viability x log10 dose units); higher = less sensitive
Procedure, shortened: (§2)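 Leukemia cells adapted to each medium were seeded in 1536-well plates (500 or 1000 cells/well) and given library compounds in DMSO for 48 h at 37°C. The 11 threefold doses spanned 47 μM to 0.79 nM, and CellTiter-Glo One luminescence was normalised per plate to DMSO and cell-free wells before four-parameter log-logistic fitting on log10 dose. Area under the curve was integrated with the trapezoidal rule, scaling curves above full viability and removing curves that failed quality control.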

P12-Ichikawa [5] = assay: as above
Procedure, shortened: as §2

SEM cells [6] = assay: as above
Procedure, shortened: as §2

[7] = HPLM + 10% dialyzed FBS, 0.000781 µM
[8] = HPLM + 10% dialyzed FBS, 0.00234 µM
[9] = HPLM + 10% dialyzed FBS, 0.00702 µM
[10] = HPLM + 10% dialyzed FBS, 0.0211 µM
[11] = HPLM + 10% dialyzed FBS, 0.0632 µM
[12] = HPLM + 10% dialyzed FBS, 0.19 µM
[13] = HPLM + 10% dialyzed FBS, 0.569 µM
[14] = HPLM + 10% dialyzed FBS, 1.71 µM
[15] = HPLM + 10% dialyzed FBS, 5.12 µM
[16] = HPLM + 10% dialyzed FBS, 15.4 µM
[17] = HPLM + 10% dialyzed FBS, 46.1 µM
[18] = RPMI 5 mM glucose + 10% FBS, 0.000781 µM
[19] = RPMI 5 mM glucose + 10% FBS, 0.00234 µM
[20] = RPMI 5 mM glucose + 10% FBS, 0.00702 µM
[21] = RPMI 5 mM glucose + 10% FBS, 0.0211 µM
[22] = RPMI 5 mM glucose + 10% FBS, 0.0632 µM
[23] = RPMI 5 mM glucose + 10% FBS, 0.19 µM
[24] = RPMI 5 mM glucose + 10% FBS, 0.569 µM
[25] = RPMI 5 mM glucose + 10% FBS, 1.71 µM
[26] = RPMI 5 mM glucose + 10% FBS, 5.12 µM
[27] = RPMI 5 mM glucose + 10% FBS, 15.4 µM
[28] = RPMI 5 mM glucose + 10% FBS, 46.1 µM
[29] = RPMI 5 mM glucose + 10% dialyzed FBS, 0.000781 µM
[30] = RPMI 5 mM glucose + 10% dialyzed FBS, 0.00234 µM
[31] = RPMI 5 mM glucose + 10% dialyzed FBS, 0.00702 µM
[32] = RPMI 5 mM glucose + 10% dialyzed FBS, 0.0211 µM
[33] = RPMI 5 mM glucose + 10% dialyzed FBS, 0.0632 µM
[34] = RPMI 5 mM glucose + 10% dialyzed FBS, 0.19 µM
[35] = RPMI 5 mM glucose + 10% dialyzed FBS, 0.569 µM
[36] = RPMI 5 mM glucose + 10% dialyzed FBS, 1.71 µM
[37] = RPMI 5 mM glucose + 10% dialyzed FBS, 5.12 µM
[38] = RPMI 5 mM glucose + 10% dialyzed FBS, 15.4 µM
[39] = RPMI 5 mM glucose + 10% dialyzed FBS, 46.1 µM
[40] = RPMI 5 mM glucose + 10% dialyzed FBS

C[C@](N)(Cc1ccc(O)c(O)c1)C(=O)O
cell viability (NOMO1 [1]; [7]): 84.9% | cell viability (NOMO1 [1]; [8]): 84.3% | cell viability (NOMO1 [1]; [9]): 96.8% | cell viability (NOMO1 [1]; [10]): 74.9% | cell viability (NOMO1 [1]; [11]): 89.4% | cell viability (NOMO1 [1]; [12]): 82% | cell viability (NOMO1 [1]; [13]): 76.7% | cell viability (NOMO1 [1]; [14]): 69.9% | cell viability (NOMO1 [1]; [15]): 92.9% | cell viability (NOMO1 [1]; [16]): 76.8% | cell viability (NOMO1 [1]; [17]): 72.6% | cell viability (NOMO1 [1]; [18]): 86.4% | cell viability (NOMO1 [1]; [19]): 80.1% | cell viability (NOMO1 [1]; [20]): 93.9% | cell viability (NOMO1 [1]; [21]): 82% | cell viability (NOMO1 [1]; [22]): 81.7% | cell viability (NOMO1 [1]; [23]): 81% | cell viability (NOMO1 [1]; [24]): 76.5% | cell viability (NOMO1 [1]; [25]): 78.4% | cell viability (NOMO1 [1]; [26]): 82.9% | cell viability (NOMO1 [1]; [27]): 76.9% | cell viability (NOMO1 [1]; [28]): 74.1% | cell viability (NOMO1 [1]; [29]): 88.3% | cell viability (NOMO1 [1]; [30]): 88.5% | cell viability (NOMO1 [1]; [31]): 85% | cell viability (NOMO1 [1]; [32]): 87.1% | cell viability (NOMO1 [1]; [33]): 92.2% | cell viability (NOMO1 [1]; [34]): 85.7% | cell viability (NOMO1 [1]; [35]): 78.1% | cell viability (NOMO1 [1]; [36]): 87.2% | cell viability (NOMO1 [1]; [37]): 82.3% | cell viability (NOMO1 [1]; [38]): 79% | cell viability (NOMO1 [1]; [39]): 77.9% | cell viability (P12-Ichikawa [2]; [7]): 95.1% | cell viability (P12-Ichikawa [2]; [8]): 90.6% | cell viability (P12-Ichikawa [2]; [9]): 91.4% | cell viability (P12-Ichikawa [2]; [10]): 96.8% | cell viability (P12-Ichikawa [2]; [11]): 102% | cell viability (P12-Ichikawa [2]; [12]): 87.7% | cell viability (P12-Ichikawa [2]; [13]): 77% | cell viability (P12-Ichikawa [2]; [14]): 90.4% | cell viability (P12-Ichikawa [2]; [15]): 87.8% | cell viability (P12-Ichikawa [2]; [16]): 81.2% | cell viability (P12-Ichikawa [2]; [17]): 84.8% | cell viability (P12-Ichikawa [2]; [18]): 90.8% | cell viability (P12-Ichikawa [2]; [19]): 93.3% | cell viability (P12-Ichikawa [2]; [20]): 87.2% | cell viability (P12-Ichikawa [2]; [21]): 89.3% | cell viability (P12-Ichikawa [2]; [22]): 93.3% | cell viability (P12-Ichikawa [2]; [23]): 92.9% | cell viability (P12-Ichikawa [2]; [24]): 83.2% | cell viability (P12-Ichikawa [2]; [25]): 81.1% | cell viability (P12-Ichikawa [2]; [26]): 81% | cell viability (P12-Ichikawa [2]; [27]): 80.8% | cell viability (P12-Ichikawa [2]; [28]): 84.9% | cell viability (P12-Ichikawa [2]; [29]): 85.1% | cell viability (P12-Ichikawa [2]; [30]): 85.1% | cell viability (P12-Ichikawa [2]; [31]): 83.5% | cell viability (P12-Ichikawa [2]; [32]): 88.2% | cell viability (P12-Ichikawa [2]; [33]): 89.3% | cell viability (P12-Ichikawa [2]; [34]): 82.1% | cell viability (P12-Ichikawa [2]; [35]): 82.5% | cell viability (P12-Ichikawa [2]; [36]): 81.8% | cell viability (P12-Ichikawa [2]; [37]): 76.1% | cell viability (P12-Ichikawa [2]; [38]): 81.8% | cell viability (P12-Ichikawa [2]; [39]): 81.4% | cell viability (SEM cells [3]; [7]): 83.9% | cell viability (SEM cells [3]; [8]): 85.7% | cell viability (SEM cells [3]; [9]): 94.4% | cell viability (SEM cells [3]; [10]): 86.3% | cell viability (SEM cells [3]; [11]): 102% | cell viability (SEM cells [3]; [12]): 92.5% | cell viability (SEM cells [3]; [13]): 84.1% | cell viability (SEM cells [3]; [14]): 81.7% | cell viability (SEM cells [3]; [15]): 83% | cell viability (SEM cells [3]; [16]): 74.8% | cell viability (SEM cells [3]; [17]): 6.26% | cell viability (SEM cells [3]; [18]): 94.7% | cell viability (SEM cells [3]; [19]): 106% | cell viability (SEM cells [3]; [20]): 100% | cell viability (SEM cells [3]; [21]): 111% | cell viability (SEM cells [3]; [22]): 103% | cell viability (SEM cells [3]; [23]): 81.6% | cell viability (SEM cells [3]; [24]): 69.2% | cell viability (SEM cells [3]; [25]): 93.5% | cell viability (SEM cells [3]; [26]): 86.2% | cell viability (SEM cells [3]; [27]): 72.9% | cell viability (SEM cells [3]; [28]): 3.7% | cell viability (SEM cells [3]; [29]): 103% | cell viability (SEM cells [3]; [30]): 93.7% | cell viability (SEM cells [3]; [31]): 95.9% | cell viability (SEM cells [3]; [32]): 111% | cell viability (SEM cells [3]; [33]): 97.8% | cell viability (SEM cells [3]; [34]): 91.1% | cell viability (SEM cells [3]; [35]): 98.5% | cell viability (SEM cells [3]; [36]): 96.1% | cell viability (SEM cells [3]; [37]): 88.2% | cell viability (SEM cells [3]; [38]): 77.4% | cell viability (SEM cells [3]; [39]): 4.47% | AUC of viability dose-response curve (NOMO1 [4]; HPLM + 10% dialyzed FBS): 391 | AUC of viability dose-response curve (NOMO1 [4]; RPMI 5 mM glucose + 10% FBS): 387 | AUC of viability dose-response curve (NOMO1 [4]; [40]): 405 | AUC of viability dose-response curve (P12-Ichikawa [5]; HPLM + 10% dialyzed FBS): 427 | AUC of viability dose-response curve (P12-Ichikawa [5]; RPMI 5 mM glucose + 10% FBS): 416 | AUC of viability dose-response curve (P12-Ichikawa [5]; [40]): 398 | AUC of viability dose-response curve (SEM cells [6]; HPLM + 10% dialyzed FBS): 395 | AUC of viability dose-response curve (SEM cells [6]; RPMI 5 mM glucose + 10% FBS): 417 | AUC of viability dose-response curve (SEM cells [6]; [40]): 432
